The target of the first assay is T1, Polθ polymerase domain (amino acids 1792-2590) (Homo sapiens, UniProt O75417).
T1 construct: 10×Histidine-SUMO (N, cleaved yes); made in house; host or cells: E. coli
T1 sequence (O75417 1792-2590): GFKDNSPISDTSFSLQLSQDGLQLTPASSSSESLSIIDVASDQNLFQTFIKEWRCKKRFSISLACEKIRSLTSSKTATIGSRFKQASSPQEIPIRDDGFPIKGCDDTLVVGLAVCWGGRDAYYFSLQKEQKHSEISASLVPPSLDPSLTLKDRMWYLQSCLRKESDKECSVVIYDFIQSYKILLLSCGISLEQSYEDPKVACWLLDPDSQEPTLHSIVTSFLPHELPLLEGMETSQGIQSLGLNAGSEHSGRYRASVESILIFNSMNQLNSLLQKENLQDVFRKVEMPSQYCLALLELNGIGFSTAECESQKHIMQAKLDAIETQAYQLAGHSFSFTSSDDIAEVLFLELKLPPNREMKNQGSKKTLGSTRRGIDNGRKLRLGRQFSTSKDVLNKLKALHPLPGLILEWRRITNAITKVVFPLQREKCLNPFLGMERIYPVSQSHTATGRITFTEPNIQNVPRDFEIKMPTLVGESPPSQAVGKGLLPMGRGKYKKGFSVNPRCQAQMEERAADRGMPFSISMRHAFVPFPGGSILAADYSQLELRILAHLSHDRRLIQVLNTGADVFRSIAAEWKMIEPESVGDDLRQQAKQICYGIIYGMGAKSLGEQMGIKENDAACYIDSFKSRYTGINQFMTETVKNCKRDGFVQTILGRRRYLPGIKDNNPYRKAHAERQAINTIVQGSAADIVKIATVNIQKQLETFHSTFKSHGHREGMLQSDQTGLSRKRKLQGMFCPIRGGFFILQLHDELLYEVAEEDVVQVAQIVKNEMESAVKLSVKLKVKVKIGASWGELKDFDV
Briefly: Picogreen assay of Polθ polymerase activity. The format is biochemical. As to conditions: 12-point concentration response, 90 minutes incubation at room temperature, 8 nM Polθ in 2×polymerase mixture, read-out: PolQ IC50. A digest of the protocol: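 E. coli-expressed polymerase domain with His-SUMO tag removed; 2× enzyme mix (8 nM) combined with 2× substrate mix (100 nM annealed primer/template DNA, 40 uM dNTPs). Buffer 25 mM Tris-HCl pH 7.5, 12.5 mM NaCl, 0.5 mM MgCl2, 1 mM DTT. Reaction 90 min at room temperature, then EDTA/Picogreen stain read at 485/520 nm; 12-point IC50.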
As for `Cc1cc(C(F)(F)F)cc(N2[C@H](C(=O)N(CC#Cc3cnc4c(c3)C(C)(C)N(C)C4=O)c3ccc(F)c(C)c3)CCS2(=O)=O)n1` [compound 99], the half-maximal inhibitory concentration (IC50) (in general, the concentration needed to halve the response being measured) lay within 1 to 50 nM.
On the same count and under the same terms, as for `Cc1cc(C(F)(F)F)cc(N2[C@H](C(=O)N(CC#Cc3ccc(C#N)nc3)c3ccc(F)c(C)c3)CCS2(=O)=O)n1` [compound 115], the figure is 1 to 50 nM.
On the same count and under the same terms, as for `C=CC(=O)Nc1cccnc1C#CCN(C(=O)[C@@H]1CCS(=O)(=O)N1c1cc(C(F)(F)F)cc(C)n1)c1ccc(F)c(C)c1` [compound 142, (S)-N-(3-(3-acrylamidopyridin-2-yl)prop-2-yn-1-yl)-N-(4-fluoro-3-methylphenyl)-2-(6-methyl-4-(trifluoromethyl)pyridin-2-yl)isothiazolidine-3-carboxamide 1,1-dioxide], the figure is 1 to 50 nM.
The same measure, in the same setting: as for `Cc1cc(C(F)(F)F)cc(N2[C@H](C(=O)N(CC#Cc3nc(C(N)=O)co3)c3ccc(F)c(C)c3)CCS2(=O)=O)n1` [compound 104], the figure is 1 to 50 nM; as for `Cc1cccc(N(CC#Cc2ccc(N)nn2)C(=O)[C@@H]2CCC(=O)N2c2cc(C(F)(F)F)cc(C)n2)c1` [compound 1], 1 to 50 nM; as for `Cc1cc(C(F)(F)F)cc(N2[C@H](C(=O)N(CC#Cc3ccc(Cc4ccc(=O)[nH]n4)nc3)c3ccc(F)c(C)c3)CCS2(=O)=O)n1` [compound 133], 1 to 50 nM.
Consider `Cc1cc(C(F)(F)F)cc(N2[C@H](C(=O)N(CC#Cc3ccc(C(=O)N(C)C)nc3)c3ccc(F)c(C)c3)CCS2(=O)=O)n1` [compound 111], for which the IC50 fell in the range of 1 to 50 nM.

Another assay relates to DLD-1 BRCA2(−/−) Cell. Briefly: Cell viability assay (Resazurin) in DLD1-BRCA2 cells. The format is cell-based. The conditions noted are these: Homo sapiens, DLD-1, 336 h, 14 days, 1,500 cells/well, final DMSO 1%. As for the experimental part:
DLD1-BRCA2 KG (Horizon Discovery, Cat #HD 105-007) cells and DLD1-parental cells were maintained in culture media (RPMI-1640 including 2 mM L-glutamin and 25 mM sodium bicarbonate, supplemented with 10% FBS), at 37° C. in a humidified atmosphere with 5% CO2. Cells were seeded at the final concentration of 1,500 cells/well (DLD1-BRCA2 KG) and 600 cells/well (DLD1-parental) in a 96-well plate. Four hours later, test compounds were added (the final concentration of DMSO was 1%) to the cells and media were replaced every 3-4 days for 14 days. To measure viability, cells were incubated in culture media supplemented with 0.1 mg/ml of Resazurin (Merck, Cat #R7017) for 4 hours. The fluorescence was measured at Ex/Em=560 nm/590 nm using EnSight multimode plate reader (Perkin Elmer). Data analysis and IC50 calculation was done using GraphPad Prism (Version 10.0.2).
(Resazurin is reduced to fluorescent resorufin, in cell work by metabolically active cells.)
In turn, `CCN(CC)c1ccc(C#CCN(C(=O)[C@@H]2CCS(=O)(=O)N2c2cc(C(F)(F)F)cc(C)n2)c2ccc(F)c(C)c2)nn1` [Example 25, (S)-N-(3-(6-(diethylamino)pyridazin-3-yl)prop-2-yn-1-yl)-N-(4-fluoro-3-methylphenyl)-2-(6-methyl-4-(trifluoromethyl)pyridin-2-yl)isothiazolidine-3-carboxamide 1,1-dioxide] displayed an IC50 of 1100 to 5000 nM.
For `Cc1cc(C(F)(F)F)cc(N2[C@H](C(=O)N(CC#Cc3ccc(-c4ncon4)nc3)c3ccc(F)c(C)c3)CCS2(=O)=O)n1` [Example 116, (S)-N-(3-(6-(1,2,4-oxadiazol-3-yl)pyridin-3-vl)prop-2-yn-1-yl)-N-(4-fluoro-3-methylphenyl)-2-(6-methyl-4-(trifluoromethyl)pyridin-2-yl)isothiazolidine-3-carboxamide 1,1-dioxide], the IC50 is less than 1000 nM.
In turn, `CC(=O)Nc1ccc(C#CCN(C(=O)[C@@H]2CCS(=O)(=O)N2c2cc(C(F)(F)F)cc(C)n2)c2ccc(F)c(C)c2)nn1` [Example 22, (S)-N-(3-(6-acetamidopyridazin-3-yl)prop-2-yn-1-yl)-N-(4-fluoro-3-methylphenyl)-2-(6-methyl-4-(trifluoromethyl)pyridin-2-yl)isothiazolidine-3-carboxamide 1,1-dioxide] registered a 50% inhibitory concentration (IC50) of 1100 to 5000 nM.
Same read-out and setting: as for `Cc1cc(C(F)(F)F)cc(N2[C@H](C(=O)N(CC#Cc3ccc(C#N)nc3)c3ccc(F)c(C)c3)CCS2(=O)=O)n1` [Example 115, (S)-N-(3-(6-cyanopyridin-3-yl)prop-2-yn-1-yl)-N-(4-fluoro-3-methylphenyl)-2-(6-methyl-4-(trifluoromethyl)pyridin-2-yl)isothiazolidine-3-carboxamide 1,1-dioxide], the figure is less than 1000 nM.
Still for that read-out and setting: as for `Cc1cc(C(F)(F)F)cc(N2[C@H](C(=O)N(CC#Cc3cnc(C(N)=O)c(F)c3)c3ccc(F)c(C)c3)CCS2(=O)=O)n1` [Example 96, (S)-N-(3-(6-carbamoyl-5-fluoropyridin-3-yl)prop-2-yn-1-yl)-N-(4-fluoro-3-methylphenyl)-2-(6-methyl-4-(trifluoromethyl)pyridin-2-yl)isothiazolidine-3-carboxamide 1,1-dioxide], the figure is less than 1000 nM; as for `Cc1ccc(F)c(N(CC#Cc2cnc(N3CCOCC3)cn2)C(=O)[C@@H]2CCS(=O)(=O)N2c2cc(C(F)(F)F)cc(C)n2)c1` [Example 40, (S)-N-(2-fluoro-5-methylphenyl)-2-(6-methyl-4-(trifluoromethyl)pyridin-2-yl)-N-(3-(5-morpholinopyrazin-2-yl)prop-2-yn-1-yl)isothiazolidine-3-carboxamide 1,1-dioxide], 1100 to 5000 nM; as for `Cc1cc(C(F)(F)F)cc(N2C(=O)CC[C@H]2C(=O)N(CC#Cc2cccc(=O)[nH]2)c2ccc(F)c(C)c2)n1` [Example 7, (2S)-N-(4-fluoro-3-methyl-phenyl)-1-[6-methyl-4-(trifluoromethyl)-2-pyridyl]-5-oxo-N-[3-(6-oxo-1H-pyridin-2-yl)prop-2-ynyl]pyrrolidine-2-carboxamide], less than 1000 nM.
`Cc1cc(C(F)(F)F)cc(N2[C@H](C(=O)N(CC#Cc3cccc(=O)[nH]3)c3ccc(F)c(C)c3)CCS2(=O)=O)n1` [Example 87, (S)-N-(4-fluoro-3-methylphenyl)-2-(6-methyl-4-(trifluoromethyl)pyridin-2-yl)-N-(3-(6-oxo-1,6-dihydropyridin-2-yl)prop-2-yn-1-yl)isothiazolidine-3-carboxamide 1,1-dioxide]: the IC50 is less than 1000 nM.
Compound `Cc1cc(C(F)(F)F)cc(N2[C@H](C(=O)N(CC#Cc3ccc(F)cn3)c3ccc(F)c(C)c3)CCS2(=O)=O)n1` [Example 93, (S)-N-(4-fluoro-3-methylphenyl)-N-(3-(5-fluoropyridin-2-yl)prop-2-yn-1-yl)-2-(6-methyl-4-(trifluoromethyl)pyridin-2-yl)isothiazolidine-3-carboxamide 1,1-dioxide] displayed an IC50 of less than 1000 nM.
On to `Cc1cc(C(F)(F)F)cc(N2[C@H](C(=O)N(CC#Cc3cncn3C)c3ccc(F)c(C)c3)CCS2(=O)=O)n1` [Example 102, (S)-N-(4-fluoro-3-methylphenyl)-N-(3-(1-methyl-1H-imidazol-5-yl)prop-2-yn-1-yl)-2-(6-methyl-4-(trifluoromethyl)pyridin-2-yl)isothiazolidine-3-carboxamide 1,1-dioxide], for which the half-maximal inhibitory concentration (IC50) is 1100 to 5000 nM.
On the same count and under the same terms, as for `Cc1cc(C(F)(F)F)cc(N2[C@H](C(=O)N(CC#Cc3cnc(N)cn3)c3ccc(F)c(C)c3)CCS2(=O)=O)n1` [Example 30, (S)-N-(3-(5-aminopyrazin-2-yl)prop-2-yn-1-yl)-N-(4-fluoro-3-methylphenyl)-2-(6-methyl-4-(trifluoromethyl)pyridin-2-yl)isothiazolidine-3-carboxamide 1,1-dioxide], the figure is 1100 to 5000 nM.
Still for that read-out and setting: for `CNC(=O)c1cnc(C#CCN(C(=O)[C@@H]2CCS(=O)(=O)N2c2cc(C(F)(F)F)cc(C)n2)c2ccc(F)c(C)c2)cn1` [Example 67, (S)-N-(4-fluoro-3-methylphenyl)-2-(6-methyl-4-(trifluoromethyl)pyridin-2-yl)-N-(3-(5-(methylcarbamoyl)pyrazin-2-yl)prop-2-yn-1-yl)isothiazolidine-3-carboxamide 1,1-dioxide] the value was more than 5100 nM; for `Cc1ccc(F)c(N(CC#Cc2cnc(N3CCOCC3)cn2)C(=O)[C@H]2CCS(=O)(=O)N2c2cc(C(F)(F)F)cc(C)n2)c1` [Example 41, (R)-N-(2-fluoro-5-methylphenyl)-2-(6-methyl-4-(trifluoromethyl)pyridin-2-yl)-N-(3-(5-morpholinopyrazin-2-yl)prop-2-yn-1-yl) isothiazolidine-3-carboxamide 1,1-dioxide], more than 5100 nM.
Same read-out and setting: for `Cc1cc(C(F)(F)F)cc(N2[C@H](C(=O)N(CC#Cc3cnc(-n4ccnn4)cn3)c3ccc(F)c(C)c3)CCS2(=O)=O)n1` [Example 57, (S)-N-(3-(5-(1H-1,2,3-triazol-1-yl)pyrazin-2-yl)prop-2-yn-1-yl)-N-(4-fluoro-3-methylphenyl)-2-(6-methyl-4-(trifluoromethyl)pyridin-2-yl)isothiazolidine-3-carboxamide 1,1-dioxide] the value was less than 1000 nM.
